Read-outs that look alike come from different tables or passages of the source.
How the values were obtained:
[1] = tested on: MX-1 human breast cancer xenograft; assay type: in vivo, mouse; conditions: for % T/C (mean tumor volume) / % T/C (median tumor volume) / Mean tumor volume / Median tumor volume: days 1, 5, 8, 12
From the text: MX-1 cell line is estrogen receptor negative and Her2 normal. It is generic and BRCA1 and BRCA2 mutant: BRCA1 truncating mutation (3363delGAAA) and BRCA2 mutations (16864A>C, Asn289His, and 22184A>G, Asn991Asp). Average tumor volumes and platinum levels in the tumors were shown in FIG. 29 and Table 9. % T/C in Table 9 is the tumor to control ratio, i.e., the size of tumor divided by the size of tumor control. The lower % T/C is, the higher TGI % is.

H460 cells = assay: In vitro inhibition of cell proliferation (CellTiter-Glo); assay type: cell-based, human; conditions: 48 hours treatment; starting dose 20 uM, three-fold dilutions
Method: Human cancer cell lines were plated in 96 well plates (Costar) and 24 hours later were treated with a compound for 48-72 hours. Specifically, H460 cells (ATCC) were plated at a concentration of 1,500 cells per well and compound treatment was carried out for 48 hours. Compound starting dose was 20 uM and three-fold serial dilutions were done for a total of ten points. Inhibition of cell proliferation was measured using CellTiter-Glo® reagent using the standard protocol (Promega) and a Glomax® multi+detection system (Promega). Percent proliferation inhibition was calculated using the following formula: % inhibition=(control-treatment)/control*100. Control is defined as vehicle alone. IC50 curves were generated using the nonlinear regression analysis (four parameter) with GraphPad Prism 6.

Calu-6 NSCLC xenografts = assay: Tumor growth inhibition in Calu-6 NSCLC xenografts in nude mice; assay type: in vivo, mouse; conditions: dose not given
From the text: (§1) Tumor measurements were taken twice weekly, using vernier calipers.

A2780 ovarian xenografts = assay: Tumor growth inhibition in A2780 ovarian xenografts in nude mice; assay type: in vivo, mouse; conditions: for TGI %: dose not given; for TGI % compared to cisplatin and oxaliplatin (FIG. 17): in vivo screen, A2780 model
From the text: as §1

[2] = Tumor platinum levels (ICP-MS) in H460 tumor-bearing nude mice; assay type: in vivo, mouse
Method: To examine the ability of compounds disclosed herein to accumulate in tumors, a murine cancer model was used. Animals were inoculated with 5×10^5 H460 […] lung cancer cells via subcutaneous injection to the flank. Tumors were allowed to reach an approximate volume of ˜500 mm^3. Animals were then randomized into treatment groups of 3 animals per time point and were dosed at 4 mg/kg. The 24-hour time point was used as a benchmark across compounds.
Tumor platinum levels were determined by inductively coupled plasma mass spectrometry (ICP-MS). Tumors were excised from animals and dissolved in fuming nitric acid (60% w/w) by adding four parts nitric acid to 1 part tumor w/w and heating overnight at 60° C. The resulting digest was diluted 1:10 in ICP-MS analysis buffer (1% nitric acid, 2% Triton® X-100), and directly introduced into the ICP-MS unit by peristaltic pump. The end dilution factor for the samples as introduced to the ICP-MS was 50×.

NCI-H520 = assay: Multiple-dose efficacy study in lung cancer (NSCLC) model NCI-H520; assay type: in vivo; conditions: 15 mg/kg
Method: Tumor volumes and platinum levels were tracked over a course of 32 days after treatment of multiple doses of compound 8 (dosed at days 0, 3, 7 and 10) in lung cancer (NSCLC) model NCI-H520. Compound 8 was dosed at 15 mg/kg.
Cell dedifferentiation and apoptosis were studied with immunohistochemical (IHC) and TUNEL stainings.

Rat toxicology study = assay type: in vivo
[3] = Table 6 study, Calu-6 xenografts
[4] = Table 5 study, A2780 xenografts
[5] = H460 tumors, dosed at 4 mg/kg, 24-hour time point
[6] = nude, mouse, in vivo, 4 mg/kg, 24 h

With `N.N.[Cl][Pt][Cl]` [Cisplatin] the “% T/C (mean tumor volume)” value ([1]; Day 1, 3 mg/kg) was 100.6%, the “% T/C (median tumor volume)” value ([1]; Day 1, 3 mg/kg) was 105.5% and the Mean tumor volume ([1]; Day 1, 3 mg/kg) was 153.6 mm^3. The Median tumor volume ([1]; Day 1, 3 mg/kg) was 155.2 mm^3, the “% T/C (mean tumor volume)” value ([1]; Day 5, 3 mg/kg) was 96.2% and the “% T/C (median tumor volume)” value ([1]; Day 5, 3 mg/kg) was 107.3%. The Mean tumor volume ([1]; Day 5, 3 mg/kg) was 343.7 mm^3, the Median tumor volume ([1]; Day 5, 3 mg/kg) was 350.2 mm^3 and the “% T/C (mean tumor volume)” value ([1]; Day 8, 3 mg/kg) was 39.3%. For the same compound, the “% T/C (median tumor volume)” value ([1]; Day 8, 3 mg/kg) was 42.9%, the Mean tumor volume ([1]; Day 8, 3 mg/kg) was 251.2 mm^3 and the Median tumor volume ([1]; Day 8, 3 mg/kg) was 266.3 mm^3. The “% T/C (mean tumor volume)” value ([1]; Day 12, 3 mg/kg) was 4.9%, the “% T/C (median tumor volume)” value ([1]; Day 12, 3 mg/kg) was 5.4% and the Mean tumor volume ([1]; Day 12, 3 mg/kg) was 57.6 mm^3. For the same compound, the Median tumor volume ([1]; Day 12, 3 mg/kg) was 57.6 mm^3, the “TGI % Day 15” value ([1]; Day 15, 3 mg/kg) was 98.6% and the “% T/C (mean tumor volume)” value ([1]; Day 15, 3 mg/kg) was 1.4%. The “% T/C (median tumor volume)” value ([1]; Day 15, 3 mg/kg) was 1.5%, the Mean tumor volume ([1]; Day 15, 3 mg/kg) was 26.7 mm^3 and the Median tumor volume ([1]; Day 15, 3 mg/kg) was 29.7 mm^3. It also gave an IC50 (H460 cells) of 2000 nM, a TGI % (Calu-6 NSCLC xenografts; Table 4 study, comparators) of 91.4% and a TGI % (Calu-6 NSCLC xenografts; [3]) of 94.57%. It also gave a TGI % (A2780 ovarian xenografts; Table 2 study, comparators) of 54.5%, a TGI % (A2780 ovarian xenografts; Table 3 study, comparators) of 44.2% and a TGI % (A2780 ovarian xenografts; [4]) of 53.04%. The “Platinum in tumor (mM/mmole/kg platinum dosed)” value (from here on “Platinum in tumor”) [2, 5] was 0.27 mM/mmole/kg platinum dosed.

For `CCNC(=O)[O][Pt]([NH2])([NH2])([Cl])([Cl])[O]C(=O)CCCCCN1C(=O)C=CC1=O` [Compound 7], the “Platinum in tumor” value [2, 6] was 0.51 mM/mmole/kg platinum dosed.

With `CC(=O)[O][Pt]([NH2])([NH2])([Cl])([Cl])[O]C(=O)NCCCCCN1C(=O)C=CC1=O` [Compound 8] the “tumor growth inhibition versus cisplatin” value (NCI-H520; days 0, 3, 7 and 10, cisplatin 3 mg/kg, 32 days) was “superior tumor growth inhibition than cisplatin”, the “apoptosis and dedifferentiation in tumors (IHC, TUNEL)” value (NCI-H520; images from day 10) was “significant and sustained increase in apoptosis and dedifferentiation” and the “tumor outcome at day 15 (in words)” value ([1]; day 15) was “Tumor disappeared”. For the same compound, the “kidney toxicity (blood markers and histopathology) compared to cisplatin” value (Rat toxicology study; at a higher dose of platinum) was “improvement in kidney toxicity compared to cisplatin”, the other histopathology findings (Rat toxicology study; rat, in vivo) was “No other histopathology findings” and the “TGI % compared to cisplatin and oxaliplatin (FIG. 17)” value (“TGI % … (FIG. 17)” below) (A2780 ovarian xenografts) was “superior TGI % to cisplatin and oxaliplatin”. The “Platinum in tumor” value [2, 6] was 0.51 mM/mmole/kg platinum dosed.

With `COCC(=O)[O][Pt]([NH2])([NH2])([Cl])([Cl])[O]C(=O)CCCCCN1C(=O)C=CC1=O` [Compound 9] the “Platinum in tumor” value [2, 6] was 0.53 mM/mmole/kg platinum dosed.

With `CC(=O)[O][Pt]([NH2])([NH2])([Cl])([Cl])[O]C(=O)CCCCCN1C(=O)C=CC1=O` [Compound 11] the “TGI % … (FIG. 17)” value (A2780 ovarian xenografts) was “superior TGI % to cisplatin and oxaliplatin” and the “Platinum in tumor” value [2, 6] was 0.68 mM/mmole/kg platinum dosed.

`O=C1[O][Pt]2([NH][C@@H]3CCCC[C@H]3[NH]2)[O]C1=O` [Oxaliplatin] showed a TGI % (Calu-6 NSCLC xenografts; Table 4 study, comparators) of 56.7%, a TGI % (Calu-6 NSCLC xenografts; [3]) of 21.19% and a TGI % (A2780 ovarian xenografts; Table 2 study, comparators) of 45.9%. For the same compound, the TGI % (A2780 ovarian xenografts; Table 3 study, comparators) was 40.1%, the TGI % (A2780 ovarian xenografts; [4]) was 43.75% and the “Platinum in tumor” value [2, 5] was 0.12 mM/mmole/kg platinum dosed.

For “acetate 6-(2,5-dioxo-2H-pyrrol-1(5H)-yl) hexanoate oxaliplatin [Compound 1]”, the “TGI % … (FIG. 17)” value (A2780 ovarian xenografts) was “superior TGI % to cisplatin and oxaliplatin” and the “Platinum in tumor” value [2, 5] was 0.57 mM/mmole/kg platinum dosed.

From patent publication US20180186823A1, “PLATINUM COMPOUNDS, COMPOSITIONS, AND USES THEREOF” (PLACON THERAPEUTICS, INC., priority 2015, published 2018)
